Reference: patent US5776685A, “Protein kinase C assay” (Joslin Diabetes Center, priority 1996, dated 1998)

How the values were obtained:
bovine PKC alpha [1] = experiment: PKC catalytic activity in vitro (phosphorylation of [ser25]PKC19-31 in detergent cell extracts); assay type: biochemical; conditions: for inhibition of PKC alpha catalytic activity / activation of PKC alpha in vitro: PKC alpha expressed in yeast; for PMA and Ca^2+ stimulated mutant PKC activity: Ca^2+: Ca^2+ stimulation of in vitro catalytic activity; for PMA and Ca^2+ stimulated mutant PKC activity: PMA: PMA stimulation, common symbol for in vitro catalytic activity and PMA-mediated increase of cell doubling time; for PMA and Ca^2+ stimulated mutant PKC activity: -: no stimulus (basal), common symbol for in vitro catalytic activity and cell doubling time response
Procedure: FIG. 4 is a graph which compares PKC mutant and wild type catalytic activities in vitro. […] Catalytic activity was stimulated by combinations of phosphatidylserine (PS), the phorbol ester PMA and calcium ions (Ca^2+). PS, open; PMA+PS, solid; Ca^2+ +PS, diagonally striped.
Cell lysis. About 6×10^8 expressing cells were washed in PBS and were resuspended in 1 ml lysis buffer containing 1% Triton X100, 50 mM Hepes pH 7.4, 15-mM NaC1, 5 mM EDTA, 5 mM EGTA, 10 μg/ml pepstatin, 40 μg/ml leupeptin, 10 μg/ml aprotinin and 200 μg/ml PMSF. Cell suspensions mixed with the same volume of acid washed glass beads (450-500 μm) were lysed mechanically by six 30 second vortexing steps interrupted by cooling on ice for at least 30 second in 50 ml screw cap polypropylene tubes. The lysate was cleared by 4,000 g centrifugation for 15 minutes at 4 degrees C and stored at […] for up to several weeks.
PKC catalytic activity. […] Phosphatidylserine in chloroform, with or without PMA was evaporated under N2 to dryness, resuspended in 20 mM Tris pH 7.5, mixed and sonicated at 4 degrees C for 45 seconds before use. To terminate the reaction the sample was placed on phosphocellulose paper (Whatman P81) which was repeatedly washed in 75 mM phosphoric acid. Bound radioactivity was determined by liquid scintillation spectroscopy.

[2] = tested on: Saccharomyces cerevisiae strain 334 expressing bovine PKC alpha; experiment: Cell doubling time of yeast cultures expressing PKC alpha wild type and mutant cDNAs; assay type: cell-based
Procedure: FIG. 2 is a graph of cell doubling time of yeast cultures expressing PKC alpha wild type and mutant cDNAs. Freshly saturated cultures expressing control plasmids (Cont.), normal PKC alpha (PKCa) or deletion mutants D172-225, ND153 or CD26 were diluted to low cell densities. Cell growth was followed on a roller at 30 degrees C to measurable cell densities of the logarithmic growth phase at 0.2-0.6 O.D. 600. […] Average doubling times were calculated.
Yeast strains and culture conditions. PKC expression plasmids and YEp51 or YEp52 as controls were introduced into Saccharomyces cerevisiae strain 334 [MAT alpha, pep 4-3, prb1-122, ura 3-52; leu2-3, 112, reg1-501, gal1]by lithium acetate transformation See e.g., Ito et al. 1983, J. Bacterial. 153: 163. Cells were routinely grown at 30 degrees C on a culture roller or shaker in liquid culture or on 1.5% agar plates. The synthetic medium contained 2% glucose and was leucine-free to select for stable propagation of the expression plasmids. Expressing yeast colonies were identified phenotypically by replica plating on medium containing or lacking PMA. Phenol extracts of crude cell lysates were prepared to re-transform Escherichia coli DH5 alpha. PKC mutants were characterized by DNA sequencing and defined plasmids were re-introduces into S. cerevisiae 334. These strains were used in all experiments shown. 50 ml cultures were routinely inoculated from freshly saturated cultures and grown for 16 h to an optical density of 0.4 at O.D.600.
Cell doubling times were measured by O.D.600 reading of liquid cultures in the presence of 2% galactose as shown in FIG. 2 to test whether they correlate with the specific phenotypes (colony size) caused by normal mutant PKC alpha. […] A normal 4 hours doubling time was measured for all constructs in the absence of galactose.

[3] = tested on: Saccharomyces cerevisiae strain 334 expressing bovine PKC alpha; experiment: 45Ca2+ uptake into yeast cells expressing PKC alpha forms; assay type: cell-based
Procedure: FIG. 5 is a graph of the modulation of extracellular Ca2+uptake by PKC alpha wild type and mutants.
^45 Ca^2 + uptake. Expressing yeast cells after 16 h in 2% galactose medium were washed with PBS when reaching 0.5 O.D.600. 10^7 cells were suspended in 100 μl of 50 mM MES pH 6.5, 5 mM MgSO4 and incubated with 1 μM PMA for 1 h at 30 degrees C under shaking on 96-well plates. Subsequently uptake of 2 μCi 45 Ca2+ at 300 μM CaCl2 was measured for 2 hours. Cells were rapidly transferred to Multiscreen filtration microtiter plates (Millipore) and washed four times with 200 μl of 10 mM MES, 10 mM Tris, 35 mM CaC12 pH 6.0. Filters were dried and cell-associated radioactivity was determined by liquid scintillation spectroscopy.
Ca^2+ influx has been reported in response to PKC activation in a variety of eukaryotic cells such as Nitella syncarpa plasmalemma, Aplysia bag cell neurons, rat ventricular myocytes and rat pituitary cells. To test whether the measured catalytic activities and the yeast phenotype correlate with other biological responses mediated by PKC, ^45 Ca^2+ uptake into expressing cells was determined after PMA stimulation. […] These responses are consistent with the catalytic activities and phenotypic responses of the mutants: elevated basal activity of ND153, full and reduced phorbol ester-stimulated activity of normal PKC alpha and D172-225, respectively, and lack of activity for CD26.

bovine PKC alpha [4] = experiment: [3H]PDBu binding to yeast spheroplasts expressing PKC alpha forms; conditions: 14 nM [3H]PDBu
Procedure: FIG. 3 is a graph of phorbol ester binding to cells expressing PKC alpha wild type and mutant proteins.
Phorbol ester binding. About 6×10^8 expressing cells were washed twice in 10 mM K-phosphate buffer pH 7.0, 20 mM EDTA, once in 1M sorbitol and were resuspended in 10 ml 10 mM K-phosphate buffer pH 7.0, 1.1M sorbitol, 0.5 mM CaC12. Cells were incubated with 1 U glusulase (beta-glucuronidase/arylsulfatase from Helix pomatia, Boehringer Mannheim) for about 1 hour under shaking at 30 degrees C to remove the cell wall until test cell suspensions cleared in H2 O due to cell lysis.
Both were about 13-fold elevated over background levels of control cells. Similar findings have been reported for PKC overexpression in transfected mammalian fibroblasts. […] The internal deletion of aa 172-225 led to phorbol ester binding levels reduced by 60% compared to normal PKC alpha, a potential consequence of the removal of parts of the C2 domain.

[5] = tested on: Saccharomyces cerevisiae strain 334 expressing bovine PKC alpha; experiment: Phenotypic screen of PKC alpha mutant activity by yeast colony size on agar plates; assay type: cell-based; conditions: 2% galactose, independent of phorbol ester
Procedure: The phenotypic screen of PKC alpha mutant activity by yeast colony size was performed as follows. […] Plates (9 cm diameter) were photograph after 3 days.
Galactose stimulation of cDNA expression resulted for some PKC forms in specific, decreased yeast colony sizes which were either dependent on or independent of phorbol ester activation after 3 days. […] Microscopically small colonies expressing ND153 grew to visible sizes with rates independently of PMA. Colonies expressing PKC alpha grew even more slowly to visible sizes during continued incubation in the presence of PMA.

Molecule	inhibition of PKC alpha catalytic activity (bovine PKC alpha [1])	activation of PKC alpha in vitro (bovine PKC alpha [1])	PMA and Ca^2+ stimulated mutant PKC activity: Ca^2+ (bovine PKC alpha [1])	PMA and Ca^2+ stimulated mutant PKC activity: PMA (bovine PKC alpha [1])	PMA and Ca^2+ stimulated mutant PKC activity: - (bovine PKC alpha [1])	further results
CC1CNCCN1S(=O)(=O)c1cccc2cnccc12 (racemic) [H-7, reference compound]	efficiently inhibited					
CC(C)[C@H]1C(=O)N[C@H](CO)Cc2c[nH]c3cccc(c23)N1C [(-)-indolactam V, reference compound]		efficiently activated				
CCCCCCCCCCN(C)c1cc(CO)cc(NC(C)=O)c1 [ADMB, 3-(N-acetylamino)-5(N-decyl-N-methylamino) benzyl alcohol, reference compound]		efficiently activated				
CCCCCCCCCCNc1cc(CO)c2cc[nH]c2c1 [DHI, 6-(N-decylamino)-4-hydroxymethylindole, reference compound]		efficiently activated				
CC1=CC23C(=O)C(C=C(COC(=O)c4ccccc4)C(O)C2(O)C1OC(=O)c1ccccc1)C1C(CC3C)C1(C)C (stereo not drawn) [ID, ingenol 3,20-dibenzoate, reference compound]		efficiently activated				
CCCCCCCCCCCCCC(=O)O[C@@H]1[C@@H](C)[C@@]2(O)[C@@H](C=C(CO)C[C@]3(O)C(=O)C(C)=C[C@@H]23)[C@@H]2C(C)(C)[C@]12OC(C)=O [PMA, phorbol-12-myristate-13-acetate, reference compound]		efficiently activated				response of wild-type yeast cells (doubling time, colony size) ([2]; wild-type yeast cells without mammalian PKC, 1 μM PMA): did not respond
CN(C)c1ccc2cc3ccc(N(C)C)cc3nc2c1 [acridine orange, reference compound]	efficiently inhibited					
COc1ccc2c(c[n+](C)c3c4cc5c(cc4ccc23)OCO5)c1OC [chelerythrine, reference compound]	efficiently inhibited					
CC1=C[C@H]2[C@@]3(O)[C@H](C)C[C@]4(OC(=O)Cc5ccccc5)[C@H]([C@@H]3C=C(CO)C[C@]2(O)C1=O)C4(C)C [dPP, 12-deoxyphorbol 1 3-phenylacetate, reference compound]		efficiently activated				
Cc1cc(N)c2ccccc2[n+]1CCCCCCCCCC[n+]1c(C)cc(N)c2ccccc21 [dequalinium, reference compound]	efficiently inhibited					
C=C(C)C12OC3(c4ccccc4)OC1C1C4OC4(CO)C(O)C4(O)C(=O)C(C)=CC4C1(O3)C(C)C2OC(=O)/C=C/C=C/c1ccccc1 (stereo not drawn) [mezerein, reference compound]		efficiently activated				
CCCCCCCCCCCCC/C=C/[C@@H](O)[C@@H](N)CO[C@@H]1O[C@H](CO)[C@H](O)[C@H](O)[C@H]1O [psychosine, reference compound]	efficiently inhibited					
CN1CCN(CCCN2c3ccccc3Sc3ccc(C(F)(F)F)cc32)CC1 [trifluoperazine, reference compound]	efficiently inhibited					
CD26: PKCa deletion of aa 647-672			-	-	-	average cell doubling time ([2]; absence of phorbol ester, 2% galactose, synthetic minimal medium, CD26 and ND153 values phorbol ester-independent): 4 h; Ca2+ uptake after PMA stimulation over the control cell background ([3]; 1 μM PMA): unaffected by phorbol ester; increase in Ca^2+ uptake (basal) ([3]; without PMA stimulation, versus control cells): same basal response as control cells; catalytic activity under any conditions (bovine PKC alpha [1]; combinations of phosphatidylserine, PMA and calcium): no activity was detected; [3H]PDBu binding level over background levels of control cells (bovine PKC alpha [4]): about 13 fold; yeast colony size / phenotype [5]: wild-type phenotype under any condition
CD96: PKC alpha deletion mutant lacking 96 carboxyl terminal aa			-	-	-	
CD110: PKC alpha deletion mutant lacking 110 carboxyl terminal aa			-	-	-	
CD139: PKC alpha deletion mutant lacking 139 carboxyl terminal aa			-	-	-	
CD149: PKC alpha deletion mutant lacking 149 carboxyl terminal aa			-	-	-	
ND84: PKC alpha deletion mutant lacking 84 amino terminal aa			++	+	+	
ND158: PKC alpha deletion mutant lacking 158 amino terminal aa			++	+	+	
ND188: PKC alpha deletion mutant lacking 118 amino terminal aa (printed ND188 in Table 1)			++	+	+	
ND 140: PKC alpha deletion mutant lacking 140 amino terminal aa			++	+	+	
polymyxin B [reference compound]	efficiently inhibited					
